# According to patent US20060292657A1, “Phex substrates and methods using same” (priority 2003, published 2006):
# Square brackets hold non-standard residues; d marks the D form. Primed or numbered codes have the meaning given here. Ends that are not written are not given here. Peptide text beside a SMILES is read from it. * marks the point of attachment. EDDnp = O=[N+]([O-])c1ccc(NCCN*)c([N+](=O)[O-])c1; Dnp = O=[N+]([O-])c1ccc(*)c([N+](=O)[O-])c1; Dnp′ = 2,4-dinitrophenyl; 2Abz = Nc1ccccc1C(=O)O
# Tests used:
# Assay type in all cases: biochemical
# [1] = biological target: T1, secPHEX (Homo sapiens, UniProt P78562); test: IC50 determination of PHEX inhibitor, fluorigenic substrate assay
# T1 construct: pure soluble form of PHEX (secPHEX); made in house
# T1 sequence (P78562 46-749 limits assumed): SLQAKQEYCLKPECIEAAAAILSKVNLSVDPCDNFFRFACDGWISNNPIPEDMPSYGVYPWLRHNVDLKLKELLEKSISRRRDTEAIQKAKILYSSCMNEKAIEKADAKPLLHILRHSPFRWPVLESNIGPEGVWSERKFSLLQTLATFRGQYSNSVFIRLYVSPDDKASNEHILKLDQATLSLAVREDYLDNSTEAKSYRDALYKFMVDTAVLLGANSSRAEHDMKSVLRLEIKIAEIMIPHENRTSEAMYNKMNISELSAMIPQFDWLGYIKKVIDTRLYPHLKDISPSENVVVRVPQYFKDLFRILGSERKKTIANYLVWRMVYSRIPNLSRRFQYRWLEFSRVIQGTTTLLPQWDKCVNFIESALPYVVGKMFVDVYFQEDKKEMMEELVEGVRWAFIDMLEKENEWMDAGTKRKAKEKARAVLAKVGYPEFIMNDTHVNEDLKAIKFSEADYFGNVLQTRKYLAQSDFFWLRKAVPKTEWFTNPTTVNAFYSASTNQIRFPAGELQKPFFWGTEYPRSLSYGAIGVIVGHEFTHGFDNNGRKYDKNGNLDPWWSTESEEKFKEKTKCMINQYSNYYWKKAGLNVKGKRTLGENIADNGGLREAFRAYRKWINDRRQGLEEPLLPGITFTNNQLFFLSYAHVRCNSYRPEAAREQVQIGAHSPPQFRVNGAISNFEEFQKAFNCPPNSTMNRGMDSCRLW
# Description: secPHEX enzymatic activity was determined using a fluorigenic substrate where increase of fluorescence was proportional to substrate conversion to products. […] Of these, S3 was the most preferred substrate. S3 was synthesized as described above.
# The reaction was carried out in a total volume of 200 μl constituted of buffer (50 mM Mes(NaOH) pH 6.5, 150 mM NaCl) containing various concentrations of the tested PHEX inhibitor (3×10^−5 to 1×10^−11 M) and 100 ng of purified secPHEX. The enzymatic reaction was initiated with the addition of the fluorigenic substrate at a final concentration of 10 μM. The fluorescent reaction product was excited at 320 nm with fluoresce emission read at 420 nm every four minutes over a one-hour period using 96-well plate reader (Perkin-Elmer, HTS-7000™). The initial reaction rate was calculated from the acquired fluorescence-time data as a slope using Microsoft Excell™. Further examples can be found in the co-pending PCT application number PCT/CA03/01893.
# IC50 was determined with a plot of the initial rates computed above as a function of inhibitor concentration using the one site competition equation of GraphPad Prism™ version 3.03 (GraphPad™ Software Inc.).
# [2] = biological target: T1, secPHEX; test: Determination of secPHEX activity and concentration in serum with fluorigenic substrate; conditions: activity determination in serum
# Description: FIG. 6 graphically illustrates the secPHEX enzymatic activity on a fluorigenic substrate of the present invention in rat serum. The observed fluorescence increase was proportional to the reaction product formation. The reaction was carried out in a total volume of 200 μl constituted of buffer: 50 mM Hepes (NaOH) pH 7.4, 150 mM NaCl, 5*10−6 M captopril (ACE inhibitor), containing 10 μl of rat serum in which purified sPHEX was spiked. The enzymatic reaction was initiated by the addition of the fluorigenic substrate (Abz-GFSDYK-Dnp) (SEQ ID NO:3) at a final concentration of 20 μM. The fluorescent reaction product was excited at 320 nm and fluorescence recorded at 420 nm every four minutes over a one-hour period in a 96-well plate reader (Perkin-Elmer, HTS-7000). The initial enzymatic speed rate of the reaction was calculated for each condition. The reaction was carried out in presence of 5 mM EDTA to assess whether the assay is specific to metallopeptidase. Measurements were done in duplicates.
# secPHEX enzymatic activity was determined using a fluorigenic substrate where increase of fluorescence was proportional to substrate conversion to products. […] Of these, S3 was the most preferred substrate. […]
# The reaction was carried out in a total volume of 200 μl constituted of buffer (50 mM Mes(NaOH) pH 6.5, 150 mM NaCl, 5×10^−6 M captopril (ACE inhibitor)) and serum (preferably between 2 to 50 μl). […] The fluorescent reaction product is excited at 320 nm with fluoresce emission read at 420 nm every four minutes over a one-hour period using 96-well plate reader (Perikin-Elmer, HTS-7000™). The initial reaction rate was calculated from the acquired fluorescence-time data as a slope using Microsoft Excell™. PHEX Enzymatic activity (Vi) was calculated by subtracting to the initial rate of fluorescence (Vitot) with the same measured in presence of EDTA 5 mM (ViEDTA). […]
# The actual secPHEX concentration was determined from a calibration curve (Vi Vs secPHEX concentration) obtained by serial dilution of secPHEX in serum or other biological media as required.
# [3] = biological target: T1, secPHEX; test: Kinetic parameters for hydrolysis of internally quenched fluorogenic peptides by secPHEX; conditions: for hydrolysis by secPHEX (result in words): 37° C., 10 mM Bis-Tris buffer pH 5.5, 150 mM NaCl
# Description: The human recombinant secPHEX was obtained following the procedure previously described (17, WO 00/50580). Purified secPHEX concentration was determined using the Bradford method (DC protein assay kit; Bio-Rad, Mississauga, ON, Canada). Membrane-bound recombinant human PHEX was expressed in LLC-PK1 cells (17, (WO 00/50580)) and membranes were prepared essentially as described by Guo et al. (34). Briefly, transfected cells resuspended in lysis buffer (150 mM NaCl, 20 mM Tris.HCl, pH 7.6) were disrupted by sonication. Cell debris were removed by centrifugation at 300 g for 15 min at 4 °C. Membranes were collected by centrifugation at 30,000 g for 50 min and solubilized for 2h with 1% n-dodecyl-β-D-maltoside in lysis buffer. Insoluble material was pelleted by centrifugation at 10,000 g for 15 min and protein concentrations of the supernatant determined using the Bradford method described above. PHEX amounts were evaluated by immunoblotting as described previously (17). NEP expression and purification were performed as described previously (36).
# The hydrolysis of the IQFPs, at 37° C., in 10 mM Bit-Tris buffer pH 5.5 (0.35 to 1.0 ml final volume) containing 150 mM NaCl, was continuously followed measuring the fluorescence at γem=420 nm and γex=320 nm in a Hitachi F-2000™ spectrofluorometer. The cuvefte containing the buffer and the substrate was placed in a thermostatically controlled cell compartment for 5 min before the addition of the enzyme and the increase in fluorescence with time was continuously recorded for 5-10 min. The enzyme concentration for initial rate determination was chosen at a level intended to hydrolyze less than 5% of the substrate present. […] The kinetic parameters Km and kcat were calculated by the non-linear regression data analysis Grafit program (42). The kcat/Km values were calculated as the ratio of these two determined parameters. The apparent second order rate constant kcat/Km (*kIt/Km) was determined under pseudo first-order conditions, where [S]<<Km. […]
# [4] = biological target: T1, secPHEX; test: pH activity profile and NaCl dependence of secPHEX hydrolysis
# Description: FIG. 2 graphically illustrates pH and NaCl (inset) dependence of Abz-GFSDYK(Dnp)-OH (SEQ ID NO:3) hydrolysis by secPHEX. * k,t/Km values for the hydrolysis of Abz-GFSDYK(Dnp)-OH (SEQ ID NO:3) by PHEX were determined in presence of different buffers and pH conditions as described herein under the heading “Experimental Procedures” below. In the inset, the effect of NaCl is shown: Abz-GFSDYK(Dnp)-OH (SEQ ID NO:3) was incubated with secPHEX in 0.01 M Bis-Tris buffer, pH 5.5 with NaCl (0 to 0.5 M);
# The pH dependence was studied using […] of Abz-GFSDYK(Dnp)-OH (SEQ ID NO:3) over a pH range of 3.5 to 8.5. The buffers used were as follows: 0.01 M sodium acetate (3.5<pH<5.1), 0.01 M Bis-Tris (5.1<pH<6.5), 0.01 M Hepes (6.5<pH<7.4) and 0.01 M Tris-HCI (7.4<pH<8.4), containing 0.14 M NaCl. Enzymatic activity was followed at 37° C. using the continuous fluorimetric assay and the apparent second-order rate constant (*kcat/Km) was calculated as described above for each pH.
# The influence of salt on secPHEX catalytic activity was investigated using 0.2 μM of Abz-GFSDYK(Dnp)-OH (SEQ ID NO:3) as substrate at 37° C., in 0.01 M Bis-Tris buffer, pH 5.5, over a NaCl range of 0 to 500 mM. The increase in fluorescence was continuously measured at 37° C. and the apparent second-order rate constant (*kcat/Km) for the different NaCl concentrations was calculated as described above.
compound,measurement,setting,value
"CC(C)C[C@H](NC(=O)[C@H](Cc1c[nH]cn1)NC(=O)[C@H](CC(=O)O)NC(=O)c1ccccc1N)C(=O)N[C@@H](CO)C(=O)N[C@@H](CC(=O)O)C(=O)N[C@H](C(=O)N[C@@H](CO)C(=O)N[C@H](C(=O)N[C@@H](CCC(N)=O)C(=O)NCCNc1ccc([N+](=O)[O-])cc1[N+](=O)[O-])[C@@H](C)O)[C@@H](C)O [I-Abz-D125-HLS↓DTSTQ-EDDnp, Abz-DHLSDTSTQ-edDnp] (H-[2Abz]DHLSDTSTQ-EDDnp)",suitability as secPHEX substrate,[1],good secPHEX substrate
same,suitability as secPHEX substrate,[2],good secPHEX substrate
"NC(=O)[C@H](CCCCNc1ccc([N+](=O)[O-])cc1[N+](=O)[O-])NC(=O)[C@H](Cc1ccc(O)cc1)NC(=O)[C@H](CCC(=O)O)NC(=O)[C@H](CO)NC(=O)[C@H](Cc1ccccc1)NC(=O)CNC(=O)c1ccccc1N [V-Abz-GFSEYK(Dnp)-NH2, Abz-GFSEYK(Dnp)-NH2] (H-[2Abz]GFSEYK(Dnp)-NH2)",hydrolysis by secPHEX (result in words),[3],Resistant
same,hydrolysis by secPHEX (result in words),[3]; listed as Abz-GFSEYK(Dnp)-NH2,resistant to hydrolysis
Abz-GFRDWK-Dnp ([2Abz]GFRDWK-{Dnp′}) [S1],suitability as secPHEX substrate,[1],good secPHEX substrate
same,suitability as secPHEX substrate,[2],good secPHEX substrate
"Nc1ccccc1C(=O)NCC(=O)N[C@@H](Cc1ccccc1)C(=O)N[C@@H](CO)C(=O)N[C@@H](CC(=O)O)C(=O)N[C@@H](Cc1ccc(O)cc1)C(=O)N[C@@H](CCCCNc1ccc([N+](=O)[O-])cc1[N+](=O)[O-])C(=O)O [I-Abz-GFS↓DYK(Dnp)-OH, Abz-GFSDYK(Dnp)-OH] (H-[2Abz]GFSDYK(Dnp)-OH)",suitability as secPHEX substrate,[1],good secPHEX substrate
same,suitability as secPHEX substrate,[2],good secPHEX substrate
same,kcat/Km with 150 mM NaCl lower than in the absence of added salt,"[4]; 10 mM Bis Tris, pH 5,5",more than 2 fold
same,pH of maximum kcat/Km,"[4]; pH range of 3.5 to 8.5, 37° C.",~5.5
"NC(=O)[C@H](CCCCNc1ccc([N+](=O)[O-])cc1[N+](=O)[O-])NC(=O)[C@H](Cc1ccc(O)cc1)NC(=O)[C@H](CC(=O)O)NC(=O)[C@H](CO)NC(=O)[C@H](Cc1ccccc1)NC(=O)CNC(=O)c1ccccc1N [II-Abz-GFS↓DYK(Dnp)-NH2, Abz-GFSDYK(Dnp)-NH2] (H-[2Abz]GFSDYK(Dnp)-NH2)",decrease in catalytic efficiency compared with Abz-GFSDYK(Dnp)-OH,[3]; COOH-terminus amidated analogue,6 fold
